# Measured values as given in ChEMBL document CHEMBL4507319 (2021).
# What was measured:
# [1] = molecular target: Serine/threonine-protein kinase PAK 5 (Homo sapiens) (UniProt Q9P286); assay: PAK5(h) Eurofins kinase panel; settings: Compound concentration 1.0 uM
# [2] = molecular target: Tyrosine-protein kinase HCK (Homo sapiens) (UniProt P08631); assay: Hck(h) Eurofins kinase panel; settings: Compound concentration 1.0 uM
# SW480 = assay: SW480 cell line Proliferation assay; format: functional, Homo sapiens; settings: time 3 day
# [3] = molecular target: Serine/threonine-protein kinase PLK3 (Homo sapiens) (UniProt Q9H4B4); assay: Plk3(h) Eurofins kinase panel; settings: Compound concentration 1.0 uM
# Sequence of Serine/threonine-protein kinase PLK3 (Homo sapiens) (Q9H4B4 whole entry, looked up): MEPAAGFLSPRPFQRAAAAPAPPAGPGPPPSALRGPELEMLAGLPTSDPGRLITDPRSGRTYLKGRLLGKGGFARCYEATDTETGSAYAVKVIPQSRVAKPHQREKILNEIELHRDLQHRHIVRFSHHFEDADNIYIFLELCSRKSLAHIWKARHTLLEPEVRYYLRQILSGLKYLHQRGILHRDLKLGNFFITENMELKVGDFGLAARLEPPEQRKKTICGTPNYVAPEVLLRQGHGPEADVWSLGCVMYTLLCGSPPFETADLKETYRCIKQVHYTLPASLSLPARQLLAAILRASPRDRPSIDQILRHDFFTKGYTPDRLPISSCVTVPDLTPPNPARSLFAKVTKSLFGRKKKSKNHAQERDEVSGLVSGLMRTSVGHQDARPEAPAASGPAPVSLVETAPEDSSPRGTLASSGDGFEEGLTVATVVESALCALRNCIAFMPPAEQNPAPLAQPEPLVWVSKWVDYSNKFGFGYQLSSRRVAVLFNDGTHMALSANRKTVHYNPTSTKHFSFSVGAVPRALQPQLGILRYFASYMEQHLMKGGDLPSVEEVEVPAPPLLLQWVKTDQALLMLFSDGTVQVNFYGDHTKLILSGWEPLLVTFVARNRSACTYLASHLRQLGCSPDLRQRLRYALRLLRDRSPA
# [4] = molecular target: T1, Serine/threonine-protein kinase 3 (Homo sapiens) (UniProt Q13188); assay: MST2(h) Eurofins kinase panel; settings: Compound concentration 1.0 uM
# T1 sequence (whole entry): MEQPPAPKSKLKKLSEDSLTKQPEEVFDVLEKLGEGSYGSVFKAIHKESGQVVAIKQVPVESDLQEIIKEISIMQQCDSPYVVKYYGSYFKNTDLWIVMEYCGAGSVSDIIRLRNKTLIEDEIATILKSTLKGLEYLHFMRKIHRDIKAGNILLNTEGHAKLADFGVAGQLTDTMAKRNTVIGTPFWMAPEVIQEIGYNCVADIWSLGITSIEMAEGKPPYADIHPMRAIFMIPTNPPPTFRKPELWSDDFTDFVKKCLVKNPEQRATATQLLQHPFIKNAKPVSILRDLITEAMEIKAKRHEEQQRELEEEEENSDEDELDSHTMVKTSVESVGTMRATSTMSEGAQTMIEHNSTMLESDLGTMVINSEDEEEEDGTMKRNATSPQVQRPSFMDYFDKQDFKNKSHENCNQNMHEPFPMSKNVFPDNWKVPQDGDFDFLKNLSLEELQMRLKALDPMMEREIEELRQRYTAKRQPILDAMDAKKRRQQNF
# [5] = molecular target: Casein kinase II subunit alpha (Homo sapiens) (UniProt P68400); assay: CK2alpha1(h) Eurofins kinase panel; settings: Compound concentration 1.0 uM
# Sequence of Casein kinase II subunit alpha (Homo sapiens) (P68400 whole entry, looked up): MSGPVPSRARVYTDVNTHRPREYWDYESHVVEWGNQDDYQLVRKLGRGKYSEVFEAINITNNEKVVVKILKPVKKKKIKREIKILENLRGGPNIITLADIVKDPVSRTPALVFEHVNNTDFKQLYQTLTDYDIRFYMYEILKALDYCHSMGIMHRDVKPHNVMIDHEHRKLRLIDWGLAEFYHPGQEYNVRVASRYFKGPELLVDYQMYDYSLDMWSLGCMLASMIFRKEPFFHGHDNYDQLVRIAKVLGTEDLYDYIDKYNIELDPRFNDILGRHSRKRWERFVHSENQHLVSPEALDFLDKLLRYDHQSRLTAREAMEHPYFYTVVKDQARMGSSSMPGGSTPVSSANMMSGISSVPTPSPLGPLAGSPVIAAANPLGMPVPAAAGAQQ
# [6] = molecular target: Vascular endothelial growth factor receptor 1 (Homo sapiens) (UniProt P17948); assay: Flt1(h) Eurofins kinase panel; settings: Compound concentration 1.0 uM
# BXPC-3 = assay: BxPC3 cell line Proliferation assay; format: functional, Homo sapiens; settings: time 3 day
# [7] = molecular target: Calcium/calmodulin-dependent protein kinase type II subunit gamma (Homo sapiens) (UniProt Q13555); assay: CaMKIIgamma(h) Eurofins kinase panel; settings: Compound concentration 1.0 uM
# [8] = molecular target: T2, NUAK family SNF1-like kinase 2 (Homo sapiens) (UniProt Q9H093); assay: NUAK2(h) Eurofins kinase panel; settings: Compound concentration 1.0 uM
# T2 sequence (whole entry): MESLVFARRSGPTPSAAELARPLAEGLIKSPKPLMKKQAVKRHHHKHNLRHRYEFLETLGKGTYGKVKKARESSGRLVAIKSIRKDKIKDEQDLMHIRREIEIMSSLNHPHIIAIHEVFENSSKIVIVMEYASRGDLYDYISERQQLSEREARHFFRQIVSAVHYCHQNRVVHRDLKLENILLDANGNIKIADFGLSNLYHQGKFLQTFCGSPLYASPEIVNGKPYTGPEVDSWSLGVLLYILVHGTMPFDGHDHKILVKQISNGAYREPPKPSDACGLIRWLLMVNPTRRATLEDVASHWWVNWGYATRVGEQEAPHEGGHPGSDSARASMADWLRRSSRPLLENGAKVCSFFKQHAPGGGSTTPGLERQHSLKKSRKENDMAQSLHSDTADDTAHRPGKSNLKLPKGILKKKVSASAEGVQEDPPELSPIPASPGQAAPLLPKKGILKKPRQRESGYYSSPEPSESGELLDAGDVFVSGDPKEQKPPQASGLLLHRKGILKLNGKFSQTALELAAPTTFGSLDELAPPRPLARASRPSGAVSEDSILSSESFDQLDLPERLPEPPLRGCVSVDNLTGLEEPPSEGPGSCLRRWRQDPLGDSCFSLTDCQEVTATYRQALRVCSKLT
# LS174T = assay: LS-174T cell line Proliferation assay; format: functional, Homo sapiens; settings: time 3 day
# [9] = molecular target: Phosphatidylinositol 4-phosphate 5-kinase type-1 alpha (Homo sapiens) (UniProt Q99755); assay: PIP5K1a(h) Eurofins kinase panel; settings: Compound concentration 1.0 uM
# Sequence of Phosphatidylinositol 4-phosphate 5-kinase type-1 alpha (Homo sapiens) (Q99755 whole entry): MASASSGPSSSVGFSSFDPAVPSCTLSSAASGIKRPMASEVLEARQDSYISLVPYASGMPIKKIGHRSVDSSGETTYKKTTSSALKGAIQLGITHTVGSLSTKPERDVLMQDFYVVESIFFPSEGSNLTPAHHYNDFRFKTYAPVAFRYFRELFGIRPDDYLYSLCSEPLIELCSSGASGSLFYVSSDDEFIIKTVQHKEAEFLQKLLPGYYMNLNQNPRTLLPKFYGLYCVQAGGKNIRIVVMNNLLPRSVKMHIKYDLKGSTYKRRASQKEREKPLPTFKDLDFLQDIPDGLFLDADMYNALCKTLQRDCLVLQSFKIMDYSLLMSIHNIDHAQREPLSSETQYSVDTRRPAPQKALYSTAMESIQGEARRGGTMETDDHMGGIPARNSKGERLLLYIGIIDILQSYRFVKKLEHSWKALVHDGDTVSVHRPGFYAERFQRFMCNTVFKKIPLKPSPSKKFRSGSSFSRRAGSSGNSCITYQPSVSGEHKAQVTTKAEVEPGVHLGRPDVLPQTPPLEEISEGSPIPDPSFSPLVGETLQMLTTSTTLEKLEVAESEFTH
# [10] = molecular target: Misshapen-like kinase 1 (Homo sapiens) (UniProt Q8N4C8); assay: MINK(h) Eurofins kinase panel; settings: Compound concentration 1.0 uM
# Sequence of Misshapen-like kinase 1 (Homo sapiens) (Q8N4C8 whole entry, looked up): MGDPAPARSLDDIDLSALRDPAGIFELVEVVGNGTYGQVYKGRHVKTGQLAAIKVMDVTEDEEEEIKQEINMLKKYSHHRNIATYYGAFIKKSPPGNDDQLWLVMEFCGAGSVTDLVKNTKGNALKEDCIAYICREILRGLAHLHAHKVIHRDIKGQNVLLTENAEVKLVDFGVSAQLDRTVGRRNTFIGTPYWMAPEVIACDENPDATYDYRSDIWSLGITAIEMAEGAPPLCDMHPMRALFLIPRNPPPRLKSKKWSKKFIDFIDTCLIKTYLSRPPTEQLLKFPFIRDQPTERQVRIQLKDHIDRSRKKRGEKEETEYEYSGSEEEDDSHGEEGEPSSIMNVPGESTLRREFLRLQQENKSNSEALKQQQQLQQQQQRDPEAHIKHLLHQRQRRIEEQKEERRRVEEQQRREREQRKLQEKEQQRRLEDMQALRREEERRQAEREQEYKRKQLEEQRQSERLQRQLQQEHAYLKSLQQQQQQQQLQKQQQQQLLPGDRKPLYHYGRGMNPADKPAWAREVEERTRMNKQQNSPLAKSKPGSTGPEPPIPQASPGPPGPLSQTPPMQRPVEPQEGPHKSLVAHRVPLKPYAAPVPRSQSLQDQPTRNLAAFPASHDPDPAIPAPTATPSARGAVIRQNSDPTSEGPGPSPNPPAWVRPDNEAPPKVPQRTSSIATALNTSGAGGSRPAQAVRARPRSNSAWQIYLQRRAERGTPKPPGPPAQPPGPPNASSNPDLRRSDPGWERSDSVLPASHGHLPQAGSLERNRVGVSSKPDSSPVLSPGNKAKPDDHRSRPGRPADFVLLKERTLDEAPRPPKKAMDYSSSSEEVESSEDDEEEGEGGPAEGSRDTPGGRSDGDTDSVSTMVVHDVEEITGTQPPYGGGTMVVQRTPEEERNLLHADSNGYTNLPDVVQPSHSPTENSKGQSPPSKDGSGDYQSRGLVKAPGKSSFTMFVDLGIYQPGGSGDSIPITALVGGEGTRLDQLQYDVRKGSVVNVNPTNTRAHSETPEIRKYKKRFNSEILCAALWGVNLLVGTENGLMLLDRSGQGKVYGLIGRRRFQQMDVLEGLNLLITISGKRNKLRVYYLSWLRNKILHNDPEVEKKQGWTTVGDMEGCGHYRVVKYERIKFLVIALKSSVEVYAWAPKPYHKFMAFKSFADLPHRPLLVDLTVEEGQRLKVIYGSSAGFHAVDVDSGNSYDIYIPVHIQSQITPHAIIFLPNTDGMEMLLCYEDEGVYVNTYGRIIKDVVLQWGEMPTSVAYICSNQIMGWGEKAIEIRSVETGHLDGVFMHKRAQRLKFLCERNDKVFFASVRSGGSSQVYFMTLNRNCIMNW
# [11] = molecular target: Mitogen-activated protein kinase kinase kinase 20 (Homo sapiens) (UniProt Q9NYL2); assay: ZAK(h) Eurofins kinase panel; settings: Compound concentration 1.0 uM
# Sequence of Mitogen-activated protein kinase kinase kinase 20 (Homo sapiens) (Q9NYL2 2-800 limits assumed): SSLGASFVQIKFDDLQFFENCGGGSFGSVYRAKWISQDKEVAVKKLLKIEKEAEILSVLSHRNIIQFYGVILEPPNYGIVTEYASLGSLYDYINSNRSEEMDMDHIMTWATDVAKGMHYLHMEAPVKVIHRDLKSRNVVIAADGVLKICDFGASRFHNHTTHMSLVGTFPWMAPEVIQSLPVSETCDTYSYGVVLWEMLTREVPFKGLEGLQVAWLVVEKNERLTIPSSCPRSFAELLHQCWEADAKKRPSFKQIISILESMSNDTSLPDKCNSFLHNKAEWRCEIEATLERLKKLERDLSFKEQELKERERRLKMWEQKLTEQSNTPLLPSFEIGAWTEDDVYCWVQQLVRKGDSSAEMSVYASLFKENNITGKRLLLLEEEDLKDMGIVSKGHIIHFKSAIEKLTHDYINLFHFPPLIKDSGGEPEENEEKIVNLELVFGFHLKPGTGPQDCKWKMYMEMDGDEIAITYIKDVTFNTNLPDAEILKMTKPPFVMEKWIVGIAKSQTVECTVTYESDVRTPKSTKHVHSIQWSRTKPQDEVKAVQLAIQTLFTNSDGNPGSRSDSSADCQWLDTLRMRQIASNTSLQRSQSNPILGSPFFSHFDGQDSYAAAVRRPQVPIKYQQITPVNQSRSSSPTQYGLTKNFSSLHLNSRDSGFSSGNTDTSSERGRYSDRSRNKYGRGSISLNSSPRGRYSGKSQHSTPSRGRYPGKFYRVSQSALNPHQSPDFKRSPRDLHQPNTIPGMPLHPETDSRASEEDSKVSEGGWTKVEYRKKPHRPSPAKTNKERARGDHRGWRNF
# [12] = molecular target: T3, Discoidin domain-containing receptor 2 (Homo sapiens) (UniProt Q16832); assay: DDR2(h) Eurofins kinase panel; settings: Compound concentration 1.0 uM
# T3 sequence (whole entry): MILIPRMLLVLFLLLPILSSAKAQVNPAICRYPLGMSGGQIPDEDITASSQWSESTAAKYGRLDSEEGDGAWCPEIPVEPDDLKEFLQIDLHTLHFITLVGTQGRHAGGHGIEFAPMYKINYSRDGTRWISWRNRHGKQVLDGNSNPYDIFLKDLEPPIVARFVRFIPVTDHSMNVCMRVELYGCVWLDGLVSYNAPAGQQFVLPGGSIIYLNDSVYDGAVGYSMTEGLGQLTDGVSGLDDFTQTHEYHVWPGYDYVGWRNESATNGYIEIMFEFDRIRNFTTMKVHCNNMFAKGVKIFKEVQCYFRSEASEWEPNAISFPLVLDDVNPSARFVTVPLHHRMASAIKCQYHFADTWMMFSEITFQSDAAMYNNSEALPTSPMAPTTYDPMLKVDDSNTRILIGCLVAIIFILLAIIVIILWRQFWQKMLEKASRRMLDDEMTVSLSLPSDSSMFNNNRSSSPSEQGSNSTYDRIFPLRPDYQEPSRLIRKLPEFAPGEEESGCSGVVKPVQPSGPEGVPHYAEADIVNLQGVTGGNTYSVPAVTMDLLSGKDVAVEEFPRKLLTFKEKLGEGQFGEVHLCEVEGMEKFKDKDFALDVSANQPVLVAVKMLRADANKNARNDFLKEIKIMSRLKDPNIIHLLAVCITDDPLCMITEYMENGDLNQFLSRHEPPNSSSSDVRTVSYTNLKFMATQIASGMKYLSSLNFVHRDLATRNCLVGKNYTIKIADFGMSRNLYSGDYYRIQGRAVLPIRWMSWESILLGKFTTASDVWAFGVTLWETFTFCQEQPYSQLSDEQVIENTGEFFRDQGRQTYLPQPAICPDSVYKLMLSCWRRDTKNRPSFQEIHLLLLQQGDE
# [13] = molecular target: High affinity nerve growth factor receptor (Homo sapiens) (UniProt P04629); assay: TrkA(h) Eurofins kinase panel; settings: Compound concentration 1.0 uM
# Sequence of High affinity nerve growth factor receptor (Homo sapiens) (P04629 33-796 limits assumed): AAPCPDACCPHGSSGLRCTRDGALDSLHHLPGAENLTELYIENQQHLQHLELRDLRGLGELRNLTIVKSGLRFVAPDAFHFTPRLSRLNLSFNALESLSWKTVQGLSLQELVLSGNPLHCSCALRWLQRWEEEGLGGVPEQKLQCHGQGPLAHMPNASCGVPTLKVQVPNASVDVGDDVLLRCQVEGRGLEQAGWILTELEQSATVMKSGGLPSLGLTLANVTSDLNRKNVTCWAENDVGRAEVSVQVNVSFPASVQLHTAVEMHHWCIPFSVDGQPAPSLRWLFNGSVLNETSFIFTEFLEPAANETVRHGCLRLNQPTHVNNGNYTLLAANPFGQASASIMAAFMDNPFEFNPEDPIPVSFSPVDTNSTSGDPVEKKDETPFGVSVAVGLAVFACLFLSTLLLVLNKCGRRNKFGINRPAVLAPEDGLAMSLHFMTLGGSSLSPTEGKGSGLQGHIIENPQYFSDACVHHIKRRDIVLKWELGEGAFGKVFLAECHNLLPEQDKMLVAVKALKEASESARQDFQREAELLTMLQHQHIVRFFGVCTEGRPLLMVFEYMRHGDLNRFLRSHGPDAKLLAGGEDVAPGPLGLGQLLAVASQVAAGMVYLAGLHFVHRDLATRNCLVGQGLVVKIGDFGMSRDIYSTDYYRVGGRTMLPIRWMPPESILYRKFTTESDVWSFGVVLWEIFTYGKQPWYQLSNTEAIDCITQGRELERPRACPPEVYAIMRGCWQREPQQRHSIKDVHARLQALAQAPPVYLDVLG
# [14] = molecular target: Mitogen-activated protein kinase kinase kinase 10 (Homo sapiens) (UniProt Q02779); assay: MLK2(h) Eurofins kinase panel; settings: Compound concentration 1.0 uM
# [15] = molecular target: Mitogen-activated protein kinase 8 (Homo sapiens) (UniProt P45983); assay: JNK1alpha1(h) Eurofins kinase panel; settings: Compound concentration 1.0 uM
# Sequence of Tyrosine-protein kinase HCK (Homo sapiens) (P08631 2-526 limits assumed): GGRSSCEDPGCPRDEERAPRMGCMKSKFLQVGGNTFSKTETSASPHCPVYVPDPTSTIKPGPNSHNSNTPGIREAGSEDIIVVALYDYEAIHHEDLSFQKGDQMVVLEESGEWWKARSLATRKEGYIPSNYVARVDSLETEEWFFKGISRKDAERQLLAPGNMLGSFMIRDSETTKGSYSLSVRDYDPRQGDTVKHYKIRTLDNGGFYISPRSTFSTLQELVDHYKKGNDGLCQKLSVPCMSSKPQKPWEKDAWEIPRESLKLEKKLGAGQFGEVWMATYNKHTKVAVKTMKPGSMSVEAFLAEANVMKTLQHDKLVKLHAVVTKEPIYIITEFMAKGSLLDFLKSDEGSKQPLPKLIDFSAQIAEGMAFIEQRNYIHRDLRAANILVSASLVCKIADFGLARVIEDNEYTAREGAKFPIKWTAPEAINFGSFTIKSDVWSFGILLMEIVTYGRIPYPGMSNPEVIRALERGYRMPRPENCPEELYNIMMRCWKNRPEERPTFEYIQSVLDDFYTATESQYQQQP
compound,measurement,setting,value
CCc1ccccc1C(=O)Nc1n[nH]c2c(C)c(F)c(C3C(C#N)=C(C)N(C)C(C)=C3C#N)cc12 [BAY-3827],% residual kinase activity,[1],86%
same,% residual kinase activity,[2],88%
same,Cell Proliferation IC50,SW480,27.8 µM
same,% residual kinase activity,[3],127%
same,% residual kinase activity,[4],47%
same,% residual kinase activity,[5],93%
same,% residual kinase activity,[6],96%
same,Cell Proliferation IC50,BXPC-3,11.4 µM
same,% residual kinase activity,[7],79%
same,% residual kinase activity,[8],45%
same,Cell Proliferation IC50,LS174T,>30 µM
same,% residual kinase activity,[9],100%
same,% residual kinase activity,[10],99%
same,% residual kinase activity,[11],99%
same,% residual kinase activity,[12],92%
same,% residual kinase activity,[13],60%
same,% residual kinase activity,[14],94%
same,% residual kinase activity,[15],72%
